According to patent publication US8829000B2, “Substituted imidazo[1,5-A]quinoxalines as phosphodiesterase 9 inhibitors” (ASKA Pharmaceutical Co., Ltd., priority 2006, dated 2014):
Counter-ions that a name gives are not always drawn.

Test system: partial urethra obstruction model in guinea pigs
Assay: Dysuria pathological model: cystometry in partial urethra obstruction model
Format: in vivo, Hartley female guinea pigs
Details: guinea pig; for Frequency of occurrence of uninhibited contraction, before administration / Residual urine volume, before administration: baseline
Procedure: Three-four weeks old Hartley female guinea pigs (Japan SLC, Inc.) were given celiotomy under anesthesia with pentobarbital (30 mg/kg i.p.) and in their urethra to the peripheral side by 1-2 mm from the bladder neck, each a polyethylene tube of […] and 2.0 mm in inner diameter was placed.
The model was catheterized under anesthesia with urethane (1 g/kg i.p.) at the apex of urinary bladder and right jugular vein for cystometrography and intravenous administration, respectively. The other end of the bladder catheter was connected to a pressure transducer and infusion pump via a three way stop-cock, and physiological saline was continuously infused into the bladder through the infusion pump at a rate of 0.4 mL/min. to induce micturition reflex. Immediately after the micturition reflex was induced, infusion of physiological saline into the bladder was stopped. The intravesical pressure at the time the micturition reflex was induced was measured with the pressure transducer, and the obtained cystometrogram was recorded with pen recorder. The urine voided was collected with disposable type weighing dish and its weight was measured. Further the physiological saline remained in the bladder was sucked with syringe via the bladder catheter and the residual urine volume was measured. The operations of suspending the infusion of physiological saline upon induction of micturition reflex, and about 1 minute thereafter resuming the infusion of physiological saline to induce micturition reflex were repeated plural times (generally 4 times) to stabilize the micturition reflex.
After stabilizing the micturition reflex, a compound solution (prepared by dissolving the compound or methanesulfonic acid salt thereof in DMSO and diluting it with physiological saline or distilled water) or physiological saline was administered into the vein at a volume of 10 mL/kg over 4 minutes, and simultaneously the above-described micturition reflex operations were repeated until 30 minutes passed after initiation of the administration, while measuring the intravesical pressure and the volumes of micturition and residual urine. Also the frequency of uninhibited contraction occurrence during the above-described operations was recorded.

## CC(C)c1ncc2c(=O)[nH]c3cc(C(=O)N(C)C)ccc3n12 [Example 9 (methanesulfonic acid salt)]
0.3 mg/kg i.v.
  Frequency of occurrence of uninhibited contraction, after administration: 1.45 times/min
  Frequency of occurrence of uninhibited contraction, quantitative change: −0.64 times/min
  Residual urine volume, after administration: 0.11 mL
  Residual urine volume, quantitative change: -0.32 mL
3 mg/kg i.v.
  Frequency of occurrence of uninhibited contraction, after administration: 0.99 times/min
  Frequency of occurrence of uninhibited contraction, quantitative change: −1.10 times/min
  Residual urine volume, after administration: 0.63 mL
  Residual urine volume, quantitative change: +0.20 mL
10 mg/kg i.v.
  Frequency of occurrence of uninhibited contraction, after administration: 0.00 times/min
  Frequency of occurrence of uninhibited contraction, quantitative change: −0.57 times/min
  Residual urine volume, after administration: 0.03 mL
  Residual urine volume, quantitative change: -0.34 mL
Dose group 0.3 mg/kg i.v.
  Frequency of occurrence of uninhibited contraction, before administration: 2.09 times/min
  Residual urine volume, before administration: 0.43 mL
Dose group 3 mg/kg i.v.
  Frequency of occurrence of uninhibited contraction, before administration: 2.09 times/min
  Residual urine volume, before administration: 0.43 mL
Dose group 10 mg/kg i.v.
  Frequency of occurrence of uninhibited contraction, before administration: 0.57 times/min
  Residual urine volume, before administration: 0.37 mL

## CC(C)c1ncc2c(=O)[nH]c3cc(Cl)ccc3n12 [Example 6 (methanesulfonic acid salt)]
0.1 mg/kg i.v.
  Frequency of occurrence of uninhibited contraction, after administration: 1.82 times/min
  Frequency of occurrence of uninhibited contraction, quantitative change: +0.62 times/min
  Residual urine volume, after administration: 0.13 mL
  Residual urine volume, quantitative change: -0.12 mL
1 mg/kg i.v.
  Frequency of occurrence of uninhibited contraction, after administration: 1.97 times/min
  Frequency of occurrence of uninhibited contraction, quantitative change: +0.77 times/min
  Residual urine volume, after administration: 0.47 mL
  Residual urine volume, quantitative change: 0.22 mL
3 mg/kg i.v.
  Frequency of occurrence of uninhibited contraction, after administration: 0.68 times/min
  Frequency of occurrence of uninhibited contraction, quantitative change: −0.52 times/min
  Residual urine volume, after administration: 0.21 mL
  Residual urine volume, quantitative change: -0.04 mL
Dose group 0.1 mg/kg i.v.
  Frequency of occurrence of uninhibited contraction, before administration: 1.20 times/min
  Residual urine volume, before administration: 0.25 mL
Dose group 1 mg/kg i.v.
  Frequency of occurrence of uninhibited contraction, before administration: 1.20 times/min
  Residual urine volume, before administration: 0.25 mL
Dose group 3 mg/kg i.v.
  Frequency of occurrence of uninhibited contraction, before administration: 1.20 times/min
  Residual urine volume, before administration: 0.25 mL
